Experiment in all cases: HPLC NAD+ consumption, Michaelis-Menten fit
What all share (format): biochemical
Holding throughout (settings): […] C, […] min, pH […]

Test [1] concerns the target T1, ceTIR-1 (Caenorhabditis elegans, UniProt Q86DA5, F863W).
T1 construct: gene tir-1; near-intact ARM-SAM-SAM-TIR, residues 162-872 (HMD...QQR), N-terminal 6xHis + TEV site, HEK293F expression, mostly 9-mer ring, partly dissociated
T1 sequence (Q86DA5 216-926 F863W): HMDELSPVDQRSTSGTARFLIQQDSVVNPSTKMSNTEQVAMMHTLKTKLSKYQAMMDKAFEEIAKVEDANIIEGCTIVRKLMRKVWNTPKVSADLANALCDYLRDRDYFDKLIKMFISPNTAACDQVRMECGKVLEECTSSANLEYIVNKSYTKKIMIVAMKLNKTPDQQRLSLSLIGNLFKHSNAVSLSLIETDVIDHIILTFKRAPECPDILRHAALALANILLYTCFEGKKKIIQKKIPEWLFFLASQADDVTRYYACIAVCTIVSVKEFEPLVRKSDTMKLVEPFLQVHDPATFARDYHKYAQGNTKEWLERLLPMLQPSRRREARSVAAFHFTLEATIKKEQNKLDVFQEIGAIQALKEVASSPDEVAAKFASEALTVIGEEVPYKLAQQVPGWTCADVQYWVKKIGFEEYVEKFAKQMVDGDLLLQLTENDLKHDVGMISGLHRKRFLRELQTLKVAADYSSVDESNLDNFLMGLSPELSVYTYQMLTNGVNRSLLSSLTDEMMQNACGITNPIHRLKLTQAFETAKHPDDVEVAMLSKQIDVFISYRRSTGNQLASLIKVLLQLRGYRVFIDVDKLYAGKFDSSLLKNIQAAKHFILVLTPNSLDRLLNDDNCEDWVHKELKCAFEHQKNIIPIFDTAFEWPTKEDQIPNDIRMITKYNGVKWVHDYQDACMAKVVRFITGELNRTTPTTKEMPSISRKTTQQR

The target of test [2] is T2, ceTIR-1 (Caenorhabditis elegans, UniProt Q86DA5, R828K).
T2 construct: gene tir-1; near-intact ARM-SAM-SAM-TIR, residues 162-872 (HMD...QQR), N-terminal 6xHis + TEV site, HEK293F expression, mostly 9-mer ring, partly dissociated
T2 sequence (Q86DA5 216-926 R828K): T1 sequence (Q86DA5 216-926 F863W) with R613K, W648F

Test [3] has as its target T3, ceTIR-1 (Caenorhabditis elegans, UniProt Q86DA5, D888E).
T3 construct: gene tir-1; near-intact ARM-SAM-SAM-TIR, residues 162-872 (HMD...QQR), N-terminal 6xHis + TEV site, HEK293F expression, mostly 9-mer ring, partly dissociated
T3 sequence (Q86DA5 216-926 D888E): T1 sequence (Q86DA5 216-926 F863W) with W648F, D673E

Numbering of substitutions follows the chain as printed.

Take `NC(=O)c1ccc[n+]([C@@H]2O[C@H](COP(=O)(O)OP(=O)(O)OC[C@H]3O[C@@H](n4cnc5c(N)ncnc54)[C@H](O)[C@@H]3O)[C@@H](O)[C@H]2O)c1` [NAD^+]: the Km result in test [1], in test [2] and in test [3] was “none of these substitutions had any significant effect on Km” each time.

(Values after article PMC10675840, “Structure-function analysis of ceTIR-1/hSARM1 explains the lack of Wallerian axonal degeneration in C. elegans” (Cell reports, 2023).)
